Target: Human TRPA1 (Homo sapiens, UniProt O75762)
Experiment: Assay 1: In vitro cellular testing of TRPA1 modulation (CHO-TREx, Fluo-3 calcium fluorescence, AITC agonist)
Type: cell-based
Design: expressed in transfected cells; host or cells: CHO-TREx cells (Invitrogen), vector pcDNA4/TO
Conditions: CHO-TREx cells expressing human TRPA1; Fluo-3 fluorescence (FLIPR/Tetra); agonist 15 μM allyl isothiocyanate (AITC); 30 minute antagonist incubation
Procedure, shortened: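 Antagonist potency is the 50% reduction of the AITC (15 μM) calcium response, Hill-fitted against no-antagonist and 10 μM ruthenium red controls. Fluo-3-loaded (4 μM) CHO-TREx cells with tetracycline-inducible human TRPA1 got compound in HEPES saline pH 7.4 for 30 min, usually from 10 μM in three-fold dilutions.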

Sequence of Human TRPA1 (O75762 whole entry): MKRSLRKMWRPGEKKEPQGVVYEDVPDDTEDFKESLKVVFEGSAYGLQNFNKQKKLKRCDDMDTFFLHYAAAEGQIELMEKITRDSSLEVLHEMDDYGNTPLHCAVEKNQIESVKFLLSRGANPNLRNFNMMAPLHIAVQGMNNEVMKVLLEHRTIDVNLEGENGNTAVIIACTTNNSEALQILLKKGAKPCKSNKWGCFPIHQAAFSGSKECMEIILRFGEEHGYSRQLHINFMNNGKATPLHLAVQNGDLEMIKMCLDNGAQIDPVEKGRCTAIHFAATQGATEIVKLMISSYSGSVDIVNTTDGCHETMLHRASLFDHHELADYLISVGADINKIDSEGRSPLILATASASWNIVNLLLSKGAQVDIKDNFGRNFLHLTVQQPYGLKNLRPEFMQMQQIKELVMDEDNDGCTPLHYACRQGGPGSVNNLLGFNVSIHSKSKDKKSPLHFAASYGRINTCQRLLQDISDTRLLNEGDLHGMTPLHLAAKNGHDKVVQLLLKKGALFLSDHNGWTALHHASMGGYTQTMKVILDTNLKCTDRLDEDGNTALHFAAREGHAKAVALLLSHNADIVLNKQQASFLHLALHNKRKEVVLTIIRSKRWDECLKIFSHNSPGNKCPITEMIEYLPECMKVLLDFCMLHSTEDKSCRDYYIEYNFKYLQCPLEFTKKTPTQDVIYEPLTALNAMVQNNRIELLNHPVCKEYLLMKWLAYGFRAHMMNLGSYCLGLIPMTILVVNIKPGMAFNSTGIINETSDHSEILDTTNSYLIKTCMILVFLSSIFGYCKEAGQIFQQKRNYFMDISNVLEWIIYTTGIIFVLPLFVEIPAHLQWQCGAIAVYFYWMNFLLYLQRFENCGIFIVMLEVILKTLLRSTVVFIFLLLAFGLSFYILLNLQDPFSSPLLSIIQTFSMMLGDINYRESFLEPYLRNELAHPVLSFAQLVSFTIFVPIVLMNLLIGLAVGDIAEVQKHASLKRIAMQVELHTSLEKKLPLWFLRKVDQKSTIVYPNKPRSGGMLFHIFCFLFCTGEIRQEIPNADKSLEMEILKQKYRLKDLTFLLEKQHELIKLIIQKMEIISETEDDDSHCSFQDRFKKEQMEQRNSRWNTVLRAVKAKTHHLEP

Row | SMILES | IC50 [nM]
1 | O=C(NCc1cc(-c2ccc(C(F)(F)F)cc2)nc(N2CCN(Cc3cccnc3)CC2)c1)[C@@H]1CCCN1S(=O)(=O)c1ccc(Cl)s1 [Example 341, 1-[(5-Chlorothiophen-2-yl)sulfonyl]-N-({2-[4-(pyridin-3-ylmethyl)piperazin-1-yl]-6-[4-(trifluoromethyl)phenyl]pyridin-4-yl}methyl)-L-prolinamide] | 693
2 | O=C(NCc1cc(-c2ccc(C(F)(F)F)cc2)nc(N2CCN(Cc3ccncc3)CC2)c1)[C@@H]1CCCN1S(=O)(=O)c1ccc(F)cc1 [Example 342, 1-[(4-Fluorophenyl)sulfonyl]-N-({2-[4-(pyridin-4-ylmethyl)piperazin-1-yl]-6-[4-(trifluoromethyl)phenyl]pyridin-4-yl}methyl)-L-prolinamide] | 296
3 | O=C(NCc1cc(NCc2ccncc2)nc(-c2ccc(C(F)(F)F)cc2)c1)[C@@H]1CC(F)(F)CN1S(=O)(=O)c1ccc(F)cc1 [Example 343, 4,4-Difluoro-1-[(4-fluorophenyl)sulfonyl]-N-({2-[(pyridin-4-ylmethyl)amino]-6-[4-(trifluoromethyl)phenyl]pyridin-4-yl}methyl)-L-prolinamide] | 1060
4 | O=C(NCc1cc(NCc2ccncc2)nc(-c2ccc(C(F)(F)F)cc2)c1)[C@@H]1C=CCN1S(=O)(=O)c1ccc(F)cc1 [Example 344, (2S)-1-[(4-Fluorophenyl)sulfonyl]-N-({2-[(pyridin-4-ylmethyl)amino]-6-[4-(trifluoromethyl)phenyl]pyridin-4-yl}methyl)-2,5-dihydro-1H-pyrrole-2-carboxamide] | > 10000
5 | O=C(NCc1cc(NCc2ccccn2)nc(-c2ccc(C(F)(F)F)cc2)c1)[C@@H]1CCCN1S(=O)(=O)c1ccc(Cl)s1 [Example 347, 1-[(5-Chlorothiophen-2-yl)sulfonyl]-N-({2-[(pyridin-2-ylmethyl)amino]-6-[4-(trifluoromethyl)phenyl]pyridin-4-yl}methyl)-L-prolinamide] | 518
6 | O=C(NCc1cc(-c2ccc(C(F)(F)F)cc2)nc(N2CCN(Cc3ccccn3)CC2)c1)[C@@H]1CCCN1S(=O)(=O)c1ccc(F)cc1 [Example 348, 1-[(4-Fluorophenyl)sulfonyl]-N-({2-[4-(pyridin-2-ylmethyl)piperazin-1-yl]-6-[4-(trifluoromethyl)phenyl]pyridin-4-yl}methyl)-L-prolinamide] | 1630
7 | O=C(NCc1cc(NCc2ccccc2)nc(-c2ccc(C(F)(F)F)cc2)c1)[C@@H]1CC(F)(F)CN1S(=O)(=O)c1ccc(Cl)s1 [Example 352, N-({2-(Benzylamino)-6-[4-(trifluoromethyl)phenyl]pyridin-4-yl}methyl)-1-[(5-chlorothiophen-2-yl)sulfonyl]-4,4-difluoro-L-prolinamide] | 7090
8 | O=C(NCc1cc(-c2ccc(C(F)(F)F)cc2)nc(N2CCN(Cc3ccccn3)CC2)c1)[C@@H]1C=CCN1S(=O)(=O)c1ccc(F)cc1 [Example 353, (2S)-1-[(4-Fluorophenyl)sulfonyl]-N-({2-[4-(pyridin-2-ylmethyl)piperazin-1-yl]-6-[4-(trifluoromethyl)phenyl]pyridin-4-yl}methyl)-2,5-dihydro-1H-pyrrole-2-carboxamide] | 2750
9 | O=C(NCc1cc(-c2ccc(C(F)(F)F)cc2)nc(N2CCN(Cc3ccncc3)CC2)c1)[C@@H]1CC(F)(F)CN1S(=O)(=O)c1ccc(F)cc1 [Example 356, 4,4-Difluoro-1-[(4-fluorophenyl)sulfonyl]-N-({2-[4-(pyridin-4-ylmethyl)piperazin-1-yl]-6-[4-(trifluoromethyl)phenyl]pyridin-4-yl}methyl)-L-prolinamide] | > 10000
10 | O=C(NCc1cc(-c2ccc(C(F)(F)F)cc2)nc(N2CCN(c3ccccc3F)CC2)c1)[C@@H]1CC(F)(F)CN1S(=O)(=O)c1ccc(F)cc1 [Example 357, 4,4-Difluoro-N-({2-[4-(2-fluorophenyl)piperazin-1-yl]-6-[4-(trifluoromethyl)phenyl]pyridin-4-yl}methyl)-1-[(4-fluorophenyl)sulfonyl]-L-prolinamide] | > 10000
11 | O=C(NCc1cc(-c2ccc(C(F)(F)F)cc2)nc(N2CCN(c3ccccc3F)CC2)c1)[C@@H]1CC(F)(F)CN1S(=O)(=O)c1ccc(Cl)s1 [Example 358, 1-[(5-Chlorothiophen-2-yl)sulfonyl]-4,4-difluoro-N-({2-[4-(2-fluorophenyl)piperazin-1-yl]-6-[4-(trifluoromethyl)phenyl]pyridin-4-yl}methyl)-L-prolinamide] | > 10000
12 | CNc1cc(CNC(=O)[C@@H]2CC(F)(F)CN2S(=O)(=O)c2ccc(F)cc2)cc(-c2ccc(C(F)(F)F)cc2)n1 [Example 360, 4,4-Difluoro-1-[(4-fluorophenyl)sulfonyl]-N-({2-(methylamino)-6-[4-(trifluoromethyl)phenyl]pyridin-4-yl}methyl)-L-prolinamide] | 2280
13 | O=C(NCc1cc(-c2ccc(C(F)(F)F)cc2)nc(N2CCN(Cc3ccccc3)CC2)c1)[C@@H]1C=CCN1S(=O)(=O)c1ccc(F)cc1 [Example 361, (2S)—N-({2-(4-Benzylpiperazin-1-yl)-6-[4-(trifluoromethyl)phenyl]pyridin-4-yl}methyl)-1-[(4-fluorophenyl)sulfonyl]-2,5-dihydro-1H-pyrrole-2-carboxamide] | 452
14 | O=C(NCc1cc(-c2ccc(C(F)(F)F)cc2)nc(N2CCN(Cc3cccnc3)CC2)c1)[C@@H]1CC(F)(F)CN1S(=O)(=O)c1ccc(F)cc1 [Example 363, 4,4-Difluoro-1-[(4-fluorophenyl)sulfonyl]-N-({2-[4-(pyridin-3-ylmethyl)piperazin-1-yl]-6-[4-(trifluoromethyl)phenyl]pyridin-4-yl}methyl)-L-prolinamide] | 4870
15 | O=C(NCc1cc(NCc2ccncc2)nc(-c2ccc(C(F)(F)F)cc2)c1)[C@@H]1CCCN1S(=O)(=O)c1ccc(Cl)s1 [Example 364, 1-[(5-Chlorothiophen-2-yl)sulfonyl]-N-({2-[(pyridin-4-ylmethyl)amino]-6-[4-(trifluoromethyl)phenyl]pyridin-4-yl}methyl)-L-prolinamide] | 2730

The remaining lines, values ahead:

Row | IC50 [nM] | SMILES
16 | 210 | O=C(NCc1cc(-c2ccc(C(F)(F)F)cc2)nc(N2CCN(Cc3ccncc3)CC2)c1)[C@@H]1C=CCN1S(=O)(=O)c1ccc(Cl)s1 [Example 340, (2S)-1-[(5-Chlorothiophen-2-yl)sulfonyl]-N-({2-[4-(pyridin-4-ylmethyl)piperazin-1-yl]-6-[4-(trifluoromethyl)phenyl]pyridin-4-yl}methyl)-2,5-dihydro-1H-pyrrole-2-carboxamide]
17 | 2500 | O=C(NCc1cc(NCc2cccnc2)nc(-c2ccc(C(F)(F)F)cc2)c1)[C@@H]1C=CCN1S(=O)(=O)c1ccc(Cl)s1 [Example 345, (2S)-1-[(5-Chlorothiophen-2-yl)sulfonyl]-N-({2-[(pyridin-3-ylmethyl)amino]-6-[4-(trifluoromethyl)phenyl]pyridin-4-yl}methyl)-2,5-dihydro-1H-pyrrole-2-carboxamide]
18 | > 10000 | O=C(NCc1cc(NCc2cccnc2)nc(-c2ccc(C(F)(F)F)cc2)c1)[C@@H]1C=CCN1S(=O)(=O)c1ccc(F)cc1 [Example 346, (2S)-1-[(4-Fluorophenyl)sulfonyl]-N-({2-[(pyridin-3-ylmethyl)amino]-6-[4-(trifluoromethyl)phenyl]pyridin-4-yl}methyl)-2,5-dihydro-1H-pyrrole-2-carboxamide]
19 | 1690 | CC(Nc1cc(CNC(=O)[C@@H]2CCCN2S(=O)(=O)c2ccc(F)cc2)cc(-c2ccc(C(F)(F)F)cc2)n1)c1cccnc1 (stereo partly drawn) [Example 349, 1-[(4-Fluorophenyl)sulfonyl]-N-({2-[(1-pyridin-3-ylethyl)amino]-6-[4-(trifluoromethyl)phenyl]pyridin-4-yl}methyl)-L-prolinamide]
20 | 7260 | CC(Nc1cc(CNC(=O)[C@@H]2C=CCN2S(=O)(=O)c2ccc(F)cc2)cc(-c2ccc(C(F)(F)F)cc2)n1)c1cccnc1 (stereo partly drawn) [Example 350, (2S)-1-[(4-Fluorophenyl)sulfonyl]-N-({2-[(1-pyridin-3-ylethyl)amino]-6-[4-(trifluoromethyl)phenyl]pyridin-4-yl}methyl)-2,5-dihydro-1H-pyrrole-2-carboxamide]
21 | > 10000 | CC(Nc1cc(CNC(=O)[C@@H]2C=CCN2S(=O)(=O)c2ccc(Cl)s2)cc(-c2ccc(C(F)(F)F)cc2)n1)c1cccnc1 (stereo partly drawn) [Example 351, (2S)-1-[(5-Chlorothiophen-2-yl)sulfonyl]-N-({2-[(1-pyridin-3-ylethyl)amino]-6-[4-(trifluoromethyl)phenyl]pyridin-4-yl}methyl)-2,5-dihydro-1H-pyrrole-2-carboxamide]
22 | 1070 | O=C(NCc1cc(-c2ccc(C(F)(F)F)cc2)nc(N2CCN(Cc3ccccn3)CC2)c1)[C@@H]1C=CCN1S(=O)(=O)c1ccc(Cl)s1 [Example 354, (2S)-1-[(5-Chlorothiophen-2-yl)sulfonyl]-N-({2-[4-(pyridin-2-ylmethyl)piperazin-1-yl]-6-[4-(trifluoromethyl)phenyl]pyridin-4-yl}methyl)-2,5-dihydro-1H-pyrrole-2-carboxamide]
23 | 891 | O=C(NCc1cc(-c2ccc(C(F)(F)F)cc2)nc(N2CCN(Cc3cccnc3)CC2)c1)[C@@H]1C=CCN1S(=O)(=O)c1ccc(Cl)s1 [Example 355, (2S)-1-[(5-Chlorothiophen-2-yl)sulfonyl]-N-({2-[4-(pyridin-3-ylmethyl)piperazin-1-yl]-6-[4-(trifluoromethyl)phenyl]pyridin-4-yl}methyl)-2,5-dihydro-1H-pyrrole-2-carboxamide]
24 | 1190 | O=C(NCc1cc(-c2ccc(C(F)(F)F)cc2)nc(N2CCN(c3ccccc3F)CC2)c1)[C@@H]1C=CCN1S(=O)(=O)c1ccc(Cl)s1 [Example 359, (2S)-1-[(5-Chlorothiophen-2-yl)sulfonyl]-N-({2-[4-(2-fluorophenyl)piperazin-1-yl]-6-[4-(trifluoromethyl)phenyl]pyridin-4-yl}methyl)-2,5-dihydro-1H-pyrrole-2-carboxamide]
